Reference: patent US7723023B2, “Use of intrinsic reporters of cell signaling for high content drug profiling and toxicity screening” (Mount Sinai School of Medicine, priority 2001, dated 2010)

Tests used:
PC12 cells [1] = assay: IRC (c-fos, egr1) response to cytotoxin in PC12 cells by real-time PCR; type: cell-based, rat; settings: 200 μM H2O2, 1 hour exposure
Procedure: The values shown are mean±s.e.m.
The samples assayed were the same as those used to generate FIG. 7.
(§1) This level of oxidative stress induced by H2O2 leads to cell death via apoptosis, as determined by increased Caspase 3 activity by 8 hours and a reduced MTT assay response at 24 hours. […] This would allow the prediction of the toxicity of a candidate drug in this cellular target by comparison of the pattern obtained with this drug to those observed with known toxins. Thus the toxins would generate a library of reference landscapes that would serve as predictors of the effects of candidate drugs. The comparison between candidate compounds and reference landscapes could be achieved by representing each IRC at one concentration as a different axis in a conceptual multidimensional space (or matrix) and determining the Euclidean distance between the location of the candidate response profile and that of the reference landscape. Candidates that are closer to the position of known toxins would be predicted to have a higher likelihood of inducing similar toxicity at the corresponding concentrations.

PC12 cells [2] = assay: Cell death of PC12 cells under oxidative stress (Caspase 3 activity, MTT assay); type: cell-based, rat
Procedure: as §1

[3] = system: PC12 cells that stably express the dopamine D2 receptor; settings: 200 μM H2O2, 1 h, PC12-D2R cells
Procedure: Early genes β-actin, PC3, c-fos, and egr1 were assayed by real-time PCR.

[4] = system: serotonin 5-HT2A receptor; assay: Early gene expression in mouse somatosensory cortex after drug injection, real-time PCR; type: in vivo; settings: 1 h after i.p. exposure
[5] = system: human serotonin 5-HT2A receptor; assay: Gene response landscape of IRCs in HEK293 cells expressing 5-HT2A receptor; type: cell-based; settings: 10 genes, 8 concentrations, 1 hour, HEK293 cells expressing 5-HT2A receptors
Procedure: FIG. 6 is the gene response landscape for 5-HT and DOI in HEK293 cells expressing 5-HT2A receptors. The levels of gene induction in response to 8 concentrations of each agonist for 10 genes were determined in quadruplicate samples. The height of each peak represents the level of gene induction, expressed as fold-change. […] For example, the rightmost peak is highest with DOI exposure, but is lower with 5-HT exposure.
HEK293 cells were genetically engineered to stably express the human serotonin 5-HT2A receptor. Replicate aliquots of cells were treated with varying concentrations of 5-HT and DOI and the levels of a panel of IRCS after 1 hour exposure were determined by SYBR® green real-time PCR.

Structure (SMILES) | cfos mRNA level (PC12 cells [1]) | egr1 mRNA level (PC12 cells [1]) | MTT assay response (PC12 cells [2]; 200 μM H2O2, at 24 hours) | Caspase 3 activity (PC12 cells [2]; 200 μM H2O2, by 8 hours) | Early genes induced (β-actin, PC3, c-fos, egr1 assayed) [3] | Induction of the 8 early genes in serotonin 5HT2A receptor gene-knockout mouse [4] | Level of gene induction (fold-change) compared with 5-HT [5]
OO [H2O2] | marked increase | marked increase | reduced | increased | Three genes were found to be induced at 1 h: PC3, c-fos, and egr1 | – | –
CCN(CC)C(=O)[C@@H]1C=C2c3cccc4[nH]cc(c34)C[C@H]2N(C)C1 [LSD] | – | – | – | – | – | no induction was observed | –
COc1cc(CC(C)N)c(OC)cc1I (centres unmarked) [DOI] | – | – | – | – | – | no induction was observed | generally lower responses
